The target of assay [1] is T1, human m2 receptor (Hm2) (Homo sapiens, UniProt P08172).
T1 sequence (P08172 1-466): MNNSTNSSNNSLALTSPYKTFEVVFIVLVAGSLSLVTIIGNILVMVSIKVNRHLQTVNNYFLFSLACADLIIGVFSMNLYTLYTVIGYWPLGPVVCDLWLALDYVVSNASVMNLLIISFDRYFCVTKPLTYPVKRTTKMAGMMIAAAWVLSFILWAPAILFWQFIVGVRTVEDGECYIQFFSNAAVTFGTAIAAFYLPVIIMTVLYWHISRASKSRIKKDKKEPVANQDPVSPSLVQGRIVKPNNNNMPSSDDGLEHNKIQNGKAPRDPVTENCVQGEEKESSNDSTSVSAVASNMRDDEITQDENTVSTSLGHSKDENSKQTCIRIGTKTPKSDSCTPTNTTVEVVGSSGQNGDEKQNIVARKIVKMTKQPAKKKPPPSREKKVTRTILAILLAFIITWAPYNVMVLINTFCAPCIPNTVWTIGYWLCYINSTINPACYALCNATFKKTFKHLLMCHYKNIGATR
Description: (§1) Data from two to four experiments were independently fit by nonlinear regression to a single mass-action binding site. The average values of the parameters derived from the fits and their standard errors are presented. […] Note Rm1 is the rat m1 receptor, not the human m1 receptor.

Another assay addresses T2, human m5 receptor (Hm5) (Homo sapiens, UniProt P08912).
T2 construct: expressed in transfected cells
T2 sequence (P08912 1-532): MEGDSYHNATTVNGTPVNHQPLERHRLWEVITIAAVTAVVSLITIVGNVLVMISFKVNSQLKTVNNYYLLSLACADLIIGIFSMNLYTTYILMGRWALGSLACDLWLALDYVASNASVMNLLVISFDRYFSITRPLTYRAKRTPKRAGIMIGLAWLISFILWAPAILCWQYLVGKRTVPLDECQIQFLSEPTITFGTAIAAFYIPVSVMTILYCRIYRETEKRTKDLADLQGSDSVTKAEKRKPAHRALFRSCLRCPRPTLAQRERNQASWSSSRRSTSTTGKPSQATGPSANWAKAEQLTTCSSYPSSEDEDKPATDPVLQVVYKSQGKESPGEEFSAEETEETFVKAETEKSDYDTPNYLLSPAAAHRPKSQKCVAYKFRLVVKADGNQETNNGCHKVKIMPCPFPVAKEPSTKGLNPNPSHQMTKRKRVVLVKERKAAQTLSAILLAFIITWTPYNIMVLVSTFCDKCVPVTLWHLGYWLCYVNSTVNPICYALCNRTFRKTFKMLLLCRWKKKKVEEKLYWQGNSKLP
Description: 3H-NMS binding assay (direct and inhibition), membranes of transfected CHO cells, Hm5. On the procedure: Cells were seeded into six well plates at a density of 10^5 cells/well in growth medium consisting of Minimum Eagle's, Medium supplemented with 10% fetal calf serum (Gibco) and 1000 U each of penicillin G and streptomycin and 4 mM glutamine (Whitaker M.A Bioproducts). Except for the overnight (10-16 hours) transfection (see below) cells were incubated in a humidified incubator at 37° C. and 5% CO2. […] Cells were transferred to a humidified incubator at 35° C. and 3% CO2 and incubated overnight (10-16 hours). […] At the end of selection, transfected cells were harvested and plated at limiting dilution into 96-well plates.
Transfected cells were grown to confluence, washed and scraped into cold binding buffer and homogenized for 30 seconds in a Tekmar Tissumizer (setting 50). Membranes were pelleted at 14,000 g, rehomogenized and the membrane protein determined using a Biorad Protein assay dye reagent. Membrane concentration was adjusted to 1mg protein/ml and stored frozen at -80° C. prior to use.
All membranes, drugs and radioligands were made up in binding buffer which consisted of 25 mM sodium phosphate (pH 7.4) containing 5 mM magnesium chloride. Assays were conducted in 1 ml total volume. Final membrane protein concentrations were 30 ug/ml (m1), 70 ug/ml (m2), 4 μg/ml (m3), 7 μg/ml (m4), and 3 μg/ml (m5). […] Displaceable binding was assessed in the presence of 1 uM atropine sulphate. Binding was terminated by filtration through a Brandel cell harvester onto Whatman GF/C filters.
Data from two to four experiments were independently fit by nonlinear regression to a single mass-action binding site. […] Note Rm1 is the rat m1 receptor, not the human m1 receptor.

Assay [2] deals with T3, rat m1 receptor (Rm1) (Rattus norvegicus, UniProt P08482).
T3 sequence (P08482 1-460): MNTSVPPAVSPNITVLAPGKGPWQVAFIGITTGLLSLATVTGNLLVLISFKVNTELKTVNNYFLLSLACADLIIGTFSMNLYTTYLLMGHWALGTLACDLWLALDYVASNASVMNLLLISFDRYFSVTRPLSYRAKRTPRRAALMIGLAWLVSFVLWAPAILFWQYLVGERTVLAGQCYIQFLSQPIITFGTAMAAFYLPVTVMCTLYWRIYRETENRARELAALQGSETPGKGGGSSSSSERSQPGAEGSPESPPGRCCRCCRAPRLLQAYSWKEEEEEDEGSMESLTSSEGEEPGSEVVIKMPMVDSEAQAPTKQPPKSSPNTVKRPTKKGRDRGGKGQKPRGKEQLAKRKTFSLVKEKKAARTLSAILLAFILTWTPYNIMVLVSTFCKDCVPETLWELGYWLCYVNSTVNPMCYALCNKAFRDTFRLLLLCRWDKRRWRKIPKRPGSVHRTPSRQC
To be noted: inhibition of 3H-NMS binding.
Description: (§2) All membranes, drugs and radioligands were made up in binding buffer which consisted of 25 mM sodium phosphate (pH 7.4) containing 5 mM magnesium chloride. Assays were conducted in 1 ml total volume. Final membrane protein concentrations were 30 ug/ml (m1), 70 ug/ml (m2), 4 μg/ml (m3), 7 μg/ml (m4), and 3 μg/ml (m5). […] Displaceable binding was assessed in the presence of 1 uM atropine sulphate. […]

Assay [3] concerns the target T1, human m2 receptor (Hm2). Description: biochemical.
Description: as §1
In assay [4] the target is T3, rat m1 receptor (Rm1). Description: biochemical.
Description: as §2
The target in assay [5] is T4, human m3 receptor (Hm3) (Homo sapiens, UniProt P20309).
T4 sequence (P20309 whole entry): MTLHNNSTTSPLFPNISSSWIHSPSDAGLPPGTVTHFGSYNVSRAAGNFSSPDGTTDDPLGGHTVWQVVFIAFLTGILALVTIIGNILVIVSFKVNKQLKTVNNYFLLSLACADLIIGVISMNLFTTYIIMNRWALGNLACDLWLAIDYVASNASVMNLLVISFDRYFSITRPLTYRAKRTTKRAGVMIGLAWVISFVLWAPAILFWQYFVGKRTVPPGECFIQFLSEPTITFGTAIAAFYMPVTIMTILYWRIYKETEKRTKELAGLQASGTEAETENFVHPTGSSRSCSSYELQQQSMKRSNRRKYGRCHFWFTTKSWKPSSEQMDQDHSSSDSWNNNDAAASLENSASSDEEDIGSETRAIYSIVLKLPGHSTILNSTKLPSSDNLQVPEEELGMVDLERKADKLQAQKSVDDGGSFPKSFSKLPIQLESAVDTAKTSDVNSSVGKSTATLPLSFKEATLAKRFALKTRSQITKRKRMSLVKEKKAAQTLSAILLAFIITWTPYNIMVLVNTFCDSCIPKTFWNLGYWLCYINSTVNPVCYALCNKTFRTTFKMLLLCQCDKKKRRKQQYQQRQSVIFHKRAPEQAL
Description: as §2
For assay [6], the target named is T5, human m4 receptor (Hm4) (Homo sapiens, UniProt P08173).
T5 sequence (P08173 1-479): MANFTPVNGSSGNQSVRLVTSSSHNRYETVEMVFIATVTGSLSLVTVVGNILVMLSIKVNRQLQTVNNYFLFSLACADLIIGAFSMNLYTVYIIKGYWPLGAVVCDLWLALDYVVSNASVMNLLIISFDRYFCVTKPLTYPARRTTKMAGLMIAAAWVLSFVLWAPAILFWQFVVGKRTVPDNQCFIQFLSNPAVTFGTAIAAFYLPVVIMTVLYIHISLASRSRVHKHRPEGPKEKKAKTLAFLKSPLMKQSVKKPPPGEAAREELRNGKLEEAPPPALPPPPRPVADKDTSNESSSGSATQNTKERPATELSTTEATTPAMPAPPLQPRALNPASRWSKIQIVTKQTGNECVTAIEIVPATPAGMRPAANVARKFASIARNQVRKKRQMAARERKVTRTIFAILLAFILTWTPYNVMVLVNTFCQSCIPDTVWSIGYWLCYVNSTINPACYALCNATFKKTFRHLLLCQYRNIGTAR
Description: biochemical.

Assay [7] deals with T4, human m3 receptor (Hm3). Description: biochemical.
Description: as §2
The target in assay [8] is T5, human m4 receptor (Hm4). To be noted: inhibition of 3H-NMS binding.

As for `C[N+]1(C)C2CC(OC(=O)C(CO)c3ccccc3)CC1C1OC12` (single isomer, unassigned) [^3 H-NMS, N-methylscopolamine], the Bmax on human m2 receptor (Hm2) [1] (Hm2 in CHO cell membranes, direct binding of 3H-NMS) was determined as 121 ± 63 fmol/mg protein; at human m5 receptor (Hm5) (Hm5 in CHO cell membranes, direct binding of 3H-NMS), 2236 ± 590 fmol/mg protein.
Turning to `CCN(CC)CC1CCCCN1CC(=O)N1c2ccccc2C(=O)Nc2cccnc21` (stereo not shown) [AF-DX 116], the Ki worked out at 1300 nM at rat m1 receptor (Rm1) [2]; 260 nM at human m2 receptor (Hm2) [1] (Hm2, inhibition of 3H-NMS binding); 820 nM at human m3 receptor (Hm3) [5]; 2800 nM on human m5 receptor (Hm5) (Hm5, inhibition of 3H-NMS binding); 450 nM on human m4 receptor (Hm4) [8] (Hm4). Also, the IC50 against human m2 receptor (Hm2) [3] stood at 360 ± 230 nM; at rat m1 receptor (Rm1) [4], 4300 ± 1200 nM; on human m5 receptor (Hm5), 6800 ± 900 nM; at human m4 receptor (Hm4) [6], 1800 ± 300 nM; on human m3 receptor (Hm3) [7] it was 3100 ± 400 nM. Moreover, on human m4 receptor (Hm4) [8] (m4, fit to single mass action binding site with variable Hill number), the “average Hill number (H)” value is 0.79±0.03.

For the origin of these results see US5747336A, “Cloned human genes for muscarinic acetylcholine receptors and cells lines expressing same” (The United States of America as represented by the …, priority 1994, dated 1998).
